Experimental data: patent US20090156501A1, “IDENTIFICATION OF LIGANDS BY SELECTIVE AMPLIFICATION OF CELLS TRANSFECTED WITH RECEPTORS” (ACADIA PHARMACEUTICALS, INC., priority 1999, published 2009)

Assays:
EP3 prostanoid receptor = biological target: T1, EP3 prostanoid receptor (Homo sapiens, UniProt P43115); assay: Single Receptor Format amplification assay, prostanoid EP3; type: cell-based; conditions: 7-9 doses in duplicate; read-out: Ligand EC50 nM, EP3
T1 construct: expressed in transfected cells; host or cells: NIH 3T3
T1 sequence (P43115 1-390): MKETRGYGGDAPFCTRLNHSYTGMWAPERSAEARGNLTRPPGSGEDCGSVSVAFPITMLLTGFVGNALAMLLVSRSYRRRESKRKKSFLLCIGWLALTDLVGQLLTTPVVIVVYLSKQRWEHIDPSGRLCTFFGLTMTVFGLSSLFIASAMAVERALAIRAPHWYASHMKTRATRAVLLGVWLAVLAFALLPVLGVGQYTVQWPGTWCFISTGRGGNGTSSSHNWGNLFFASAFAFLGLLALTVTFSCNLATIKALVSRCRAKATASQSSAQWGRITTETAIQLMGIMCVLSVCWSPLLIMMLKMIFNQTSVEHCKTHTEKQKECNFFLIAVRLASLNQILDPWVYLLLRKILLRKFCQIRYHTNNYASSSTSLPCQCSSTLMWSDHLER
Source text: (§1) Receptors belonging to several functional categories have successfully been assayed using the general protocol for the Single Receptor Format described above. […] A diversity of signal transduction classes are also illustrated: G-protein coupled receptors, tyrosine kinase linked receptors, G-proteins and oncogenes. In a few of these cases, focus assays have been used to assay ligand interaction with the illustrated receptors.

FP prostanoid receptor = biological target: T2, FP prostanoid receptor (Homo sapiens, UniProt P43088); assay: Single Receptor Format amplification assay, prostanoid FP; type: cell-based; conditions: 7-9 doses in duplicate; read-out: Ligand EC50 nM, FP
T2 construct: expressed in transfected cells; host or cells: NIH 3T3
Source text: as §1

T2 sequence (P43088 whole entry): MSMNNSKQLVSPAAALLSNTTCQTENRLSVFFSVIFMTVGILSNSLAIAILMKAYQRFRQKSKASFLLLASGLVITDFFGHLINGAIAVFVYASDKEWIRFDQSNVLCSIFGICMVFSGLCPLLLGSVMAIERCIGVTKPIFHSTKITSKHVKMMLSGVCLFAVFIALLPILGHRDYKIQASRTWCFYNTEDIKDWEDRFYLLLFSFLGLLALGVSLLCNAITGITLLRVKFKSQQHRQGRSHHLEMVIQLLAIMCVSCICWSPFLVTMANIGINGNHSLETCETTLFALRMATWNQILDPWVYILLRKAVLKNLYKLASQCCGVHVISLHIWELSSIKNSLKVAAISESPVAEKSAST

EC50 (EP3 prostanoid receptor) [nM]	EC50 (FP prostanoid receptor) [nM]	Structure (SMILES)
270 ± 190	–	O=C(O)CCCCCC[C@H]1C(=O)CC[C@@H]1/C=C/[C@@H](O)COc1ccccc1 [MB28767]
–	2 ± 1	O=C(O)CCC/C=C\C[C@@H]1[C@@H](/C=C/[C@@H](O)COc2cccc(C(F)(F)F)c2)[C@H](O)C[C@@H]1O (racemic) [Fluprostenol]
